We go through 63 compounds from PubChem BioAssay AID732 (Emory University Molecular Libraries Screening Center, 2007).

Values joined by “and” are separate entries in the source; they are usually repeats but may differ in a detail not shown here. Equal entries are not always repeated. Active and inactive are the calls of the source. The rule behind the calls is not given here.

In this assay the test system is in vivo angiogenesis, blood vessel count. In words: angiogenesis inhibition in living animals, in vivo study, HTS (AID 732).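 Note: zebrafish embryos dosed at one day post fertilization; 0% = reference inhibitor and 100% = plate mean.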 The following applies: stronger effect = lower value;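 tested at 30 µM in the well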.
`COc1ccccc1N1CCN(CCN(C(=O)C2CCCCC2)c2ccccn2)CC1`: the vessel count % control is 87.8% (inactive).

`CC1(C)NC(=O)N(c2ccc([N+](=O)[O-])c(C(F)(F)F)c2)C1=O`: the vessel count % control was 91.7% (inactive).

Turning to `NC(Cc1ccc(Cl)cc1)C(=O)O` (stereo not drawn), the vessel count % control is 103% (inactive).

As to `COC(=O)c1c(-c2cc(OC)c(OC)c(OC)c2)c2ccc(OCc3ccccn3)cc2c(=O)n1-c1ccc(N)cc1`, the vessel count % control is 109% (inactive).

As for `CCCn1c(=O)c2[nH]c(C3CCCC3)nc2n(CCC)c1=O`, the vessel count % control was 78.9% (inactive).

With `CC(C(O)c1ccc(O)cc1)N1CCC(Cc2ccccc2)CC1` (stereo not drawn), the vessel count % control is 0% (inactive).

Consider `O=C(O)CCCc1ccc(N(CCCl)CCCl)cc1`, for which the vessel count % control is 118% (inactive).

Consider `COc1cc2c(CCNC(C)=O)c[nH]c2cc1O`, for which the vessel count % control was 105% (inactive).

Turning to `O=C1c2c(O)ccc(O)c2C(=O)c2c(NCCNCCO)ccc(NCCNCCO)c21`, the vessel count % control was 136% (inactive).

As for `NCCc1ccc(O)c(O)c1`, the vessel count % control is 91.6% (inactive).

On to `NC(C(=O)O)c1cc(=O)[nH]o1` (stereo not drawn), for which the vessel count % control was 134% (inactive).

Regarding `NC(N)=Nc1nc(CSCC/C(N)=N/S(N)(=O)=O)cs1`, the vessel count % control is 113% (inactive).

On to `Fc1ccc(CN(C2=NCCN2)c2c(Cl)cccc2Cl)cc1`, for which the vessel count % control was 92.2% (inactive).

Consider `O=C(O)C1CCCNC1` (stereo not drawn), for which the vessel count % control is 120% (inactive).

With `NC(Cc1ccc(N(CCCl)CCCl)cc1)C(=O)O` (stereo not drawn), the vessel count % control was 123% (inactive).

For `NCC(O)c1ccc(O)cc1` (stereo not drawn), the vessel count % control was 103% (inactive).

Take `CCCCCCC(C)(C)c1ccc([C@@H]2C[C@H](O)CC[C@H]2CCCO)c(O)c1`: the vessel count % control is 100% (inactive).

As to `O=[N+]([O-])c1ccc(CSc2ncnc3c2ncn3[C@@H]2O[C@H](CO)[C@H](O)C2O)cc1` (stereo partly drawn), the vessel count % control was 80.2% (inactive).

Consider `CNCCCC1c2ccccc2C=Cc2ccccc21`, for which the vessel count % control is 96% (inactive).

Turning to `CN(C)CCN(Cc1cccs1)c1ccccn1`, the vessel count % control was 110% (inactive).

Turning to `O=[N+]([O-])c1ccc(O[C@@H]2O[C@H](CO)[C@@H](O)[C@H](O)[C@H]2F)c([N+](=O)[O-])c1`, the vessel count % control was 99.2% (inactive).

In the case of `NC(C(=O)N[C@@H]1C(=O)N2C(C(=O)O)=C(Cl)CS[C@H]12)c1ccccc1` (stereo partly drawn), the vessel count % control was 108% (inactive).

For `COc1nc(C)nc(Cl)c1NC1=NCCN1`, the vessel count % control was 81.3% (inactive).

As to `O=c1[nH]c(=O)n([C@H]2C[C@H](O)[C@@H](CO)O2)cc1/C=C/Br`, the vessel count % control is 93% (inactive).

Consider `COc1ccccc1N1CCNCC1`, for which the vessel count % control is 96.7% (inactive).

On to `CCCCc1oc2ccccc2c1C(=O)c1cc(I)c(OCCN(CC)CC)c(I)c1`, for which the vessel count % control is 120% (inactive).

For the compound `COc1ccc(Cc2nccc3cc(OC)c(OC)cc23)cc1OC`, the vessel count % control is 110% (inactive).

As to `NC(=O)C1=CN(C2OC(COP(=O)(O)OP(=O)(O)OC[C@H]3O[C@@H](n4cnc5c(N)ncnc54)C(OP(=O)(O)O)[C@H]3O)C(O)C2O)C=CC1` (stereo partly drawn), the vessel count % control is 101% (inactive).

For the compound `CCN(CC)CCOC(=O)c1ccc(N)cc1`, the vessel count % control was 112% (inactive).

Turning to `C=CCN1CC[C@]23CCCCC2[C@H]1Cc1ccc(O)cc13` (stereo partly drawn), the vessel count % control is 141% (inactive).

In the case of `O=C1C(c2c(O)[nH]c3ccccc23)=Nc2ccc(Br)cc21`, the vessel count % control is 108% (inactive).

As for `OC(CCN1CCCCC1)(c1ccccc1)C1CCCCC1` (stereo not drawn), the vessel count % control was 98.5% (inactive).

With `NC(=Nc1ccccc1)NC(=O)c1nc(Cl)c(N)nc1N`, the vessel count % control is 104% (inactive).

Regarding `CC(C)(C)[C@]1(O)CCN2C[C@H]3c4ccccc4CCc4cccc(c43)[C@@H]2C1`, the vessel count % control was 71.1% (inactive) and 90% (inactive).

Regarding `C[C@]12CCC(=O)C=C1CC[C@@H]1[C@@H]2C(=O)C[C@@]2(C)[C@H]1CC[C@]2(O)C(=O)CO`, the vessel count % control was 126% (inactive).

For `CC12CC3CC(C)(C1)CC(N)(C3)C2`, the vessel count % control is 128% (inactive).

For the compound `Cc1cc(C)c(NC(=O)C[C@H](CC(=O)O)c2cccc3ccccc23)c(C(=O)N2CCC3(CCCC3)CC2)c1`, the vessel count % control was 108% (inactive).

For `CNCCNS(=O)(=O)c1cccc2cnccc12`, the vessel count % control is 140% (inactive).

In the case of `C=Cc1c(C)c2cc3[nH]c(cc4nc(cc5nc(cc1[nH]2)C(C)=C5CCC(=O)O)C(CCC(=O)O)=C4C)c(C)c3C=C`, the vessel count % control is 112% (inactive).

Regarding `N[C@H](C(=O)O)[C@H](O)C(=O)O`, the vessel count % control is 90.4% (inactive).

Consider `CC1=C(/C=C/C(C)=C/C=C/C(C)=C/C(=O)O)C(C)(C)CCC1`, for which the vessel count % control is 70% (inactive).

Take `Cn1cnc(CCN)c1`: the vessel count % control is 99.8% (inactive).

As to `OC[C@H]1O[C@@H](n2cnc3c(NCCc4ccccc4)ncnc32)C(O)[C@H]1O` (stereo partly drawn), the vessel count % control is 79.4% (inactive).

On to `Oc1ccc2c3c1O[C@H]1c4[nH]c5ccccc5c4C[C@@]4(O)C(C2)N(CC2CC2)CCC314` (stereo partly drawn), for which the vessel count % control was 115% (inactive).

`CC(=O)NCCc1c[nH]c2ccccc12`: the vessel count % control was 103% (inactive).

In the case of `NS(=O)(=O)c1cccc2c1c([N+](=O)[O-])cc1nc(O)c(O)nc12`, the vessel count % control is 111% (inactive).

With `CSc1nc(N)c2ncn([C@@H]3O[C@H](COP(=O)(O)OP(=O)(O)OP(=O)(O)O)[C@H](O)C3O)c2n1` (stereo partly drawn), the vessel count % control is 105% (inactive).

In the case of `O=c1cc(O)cc(/C=C/c2ccc(O)c(O)c2)o1`, the vessel count % control is 122% (inactive).

Take `NC(=O)c1cnccn1`: the vessel count % control is 76.5% (inactive).

As for `CC(C[N+](C)(C)C)OC(N)=O` (stereo not drawn), the vessel count % control is 91.7% (inactive).

For `CCN1C(=O)C=CC1=O`, the vessel count % control is 104% (inactive).

As for `NCCCCCC(=O)O`, the vessel count % control was 116% (inactive).

Take `C=CCN1CCc2c(cc(O)c(O)c2Br)[C@@H](c2ccccc2)C1`: the vessel count % control is 85% (inactive).

For the compound `NCCCCN`, the vessel count % control was 106% (inactive).

Consider `O=c1[nH]cnc2[nH]ncc12`, for which the vessel count % control is 120% (inactive).

Turning to `Oc1[nH]c2c(Cl)cc(Cl)cc2c1C1=Nc2ccc(Br)cc2/C1=N\OCCN1CCNCC1`, the vessel count % control is 90.9% (inactive).

Consider `COc1cc2c(CCNC(C)=O)c[nH]c2cc1Cl`, for which the vessel count % control was 71.1% (inactive).

`CCCCN1CCC(COC(=O)c2cc(Cl)c(N)c3c2OCCO3)CC1`: the vessel count % control was 105% (inactive).

On to `NCC(CP(=O)(O)O)c1ccc(Cl)cc1` (stereo not drawn), for which the vessel count % control was 116% (inactive).

Take `O=c1onc2cnc3ccccc3n12`: the vessel count % control was 95.4% (inactive).

Turning to `N#Cc1cc2nc(O)c(O)nc2cc1[N+](=O)[O-]`, the vessel count % control is 94.9% (inactive).

Take `CN(C)CCC=C1c2ccccc2CCc2ccccc21`: the vessel count % control is 91.2% (inactive).

`CC(C)(C)c1onc(OCP(=O)(O)O)c1CC(N)C(=O)O` (stereo not drawn): the vessel count % control was 88.9% (inactive).
